Assay results: US20220323406A1, “METHODS AND COMPOSITIONS FOR DIFFERENTIATING STEM CELLS” (Massachusetts Institute of Technology, priority 2019, published 2022)

Columns and labels:
[1] = system: ENR+CD organoids (ISC to Paneth cell differentiation); assay: Primary screen: CCh-stimulated lysozyme secretion LYZ.S, 2.5-D 384-well ENR+CD organoid differentiation; format: cell-based, mouse; details: primary screen
Text: (§1) High-throughput screening.

ENR+CD organoids = assay: Primary screen: ATP (CellTiter-Glo 3D, CTG) cell number/viability, 2.5-D 384-well ENR+CD organoids; details: primary screen;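 further: compounds given at plating and again on day 3 over a 6-day differentiation from ENR+CV stem-cell-enriched precursors, ATP measured on day 6, plate median as control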
[2] = system: ENR+CD organoids (ISC to Paneth cell differentiation); assay: Primary screen: basal (non-stimulated) lysozyme secretion LYZ.NS, 2.5-D 384-well ENR+CD organoid differentiation; format: cell-based, mouse; details: primary screen; for Z.LYZ.NS: standard z score
Text: as §1

[3] = dose 0.08 uM, FC vs plate median
[4] = dose 0.40 uM, FC vs plate median
[5] = dose 2.00 uM, FC vs plate median
[6] = dose 10.00 uM, FC vs plate median

SMILES: O=C(O)/C=C/c1ccc(Cn2ccnc2)cc1 [Ozagrel]
- Dose.FC.LYZ.S [1, 3]: 0.145 log2 fold change
- Dose.FC.LYZ.S [1, 4]: 0.096 log2 fold change
- Dose.FC.LYZ.S [1, 5]: 0.104 log2 fold change
- Dose.FC.LYZ.S [1, 6]: 0.011 log2 fold change
- Dose.FC.CTG (ENR+CD organoids; [3]): 0.055 log2 fold change
- Dose.FC.CTG (ENR+CD organoids; [4]): 0.224 log2 fold change
- Dose.FC.CTG (ENR+CD organoids; [5]): −0.063 log2 fold change
- Dose.FC.CTG (ENR+CD organoids; [6]): 0.113 log2 fold change
- Z.LYZ.NS ([2]; dose 0.08 uM): 0.645
- Z.LYZ.NS ([2]; dose 0.40 uM): 0.381
- Z.LYZ.NS ([2]; dose 2.00 uM): 0.698
- Z.LYZ.NS ([2]; dose 10.00 uM): −0.068
- Dose.FC.LYZ.NS [2, 3]: 0.074 log2 fold change
- Dose.FC.LYZ.NS [2, 4]: 0.044 log2 fold change
- Dose.FC.LYZ.NS [2, 5]: 0.080 log2 fold change
- Dose.FC.LYZ.NS [2, 6]: −0.008 log2 fold change

SMILES: CS(=O)(=O)c1ccc(-c2cnc(N)c(C(=O)Nc3ccccc3)n2)cc1 [VE-821]
- Dose.FC.LYZ.S ([1]; dose 0.08 uM): 0.130 log2 fold change
- Dose.FC.LYZ.S ([1]; dose 0.40 uM): 0.089 log2 fold change
- Dose.FC.LYZ.S ([1]; dose 2.00 uM): −0.004 log2 fold change
- Dose.FC.LYZ.S ([1]; dose 10.00 uM): −0.429 log2 fold change
- Dose.FC.CTG (ENR+CD organoids; dose 0.08 uM): 0.213 log2 fold change
- Dose.FC.CTG (ENR+CD organoids; dose 0.40 uM): 0.130 log2 fold change
- Dose.FC.CTG (ENR+CD organoids; dose 2.00 uM): −0.137 log2 fold change
- Dose.FC.CTG (ENR+CD organoids; dose 10.00 uM): −0.840 log2 fold change
- Dose.FC.LYZ.NS ([2]; dose 0.08 uM): 0.106 log2 fold change
- Z.LYZ.NS (standard z score) ([2]; dose 0.08 uM): 0.924
- Dose.FC.LYZ.NS ([2]; dose 0.40 uM): 0.063 log2 fold change
- Z.LYZ.NS (standard z score) ([2]; dose 0.40 uM): 0.544
- Dose.FC.LYZ.NS ([2]; dose 2.00 uM): 0.103 log2 fold change
- Z.LYZ.NS (standard z score) ([2]; dose 2.00 uM): 0.901
- Dose.FC.LYZ.NS ([2]; dose 10.00 uM): −0.284 log2 fold change
- Z.LYZ.NS (standard z score) ([2]; dose 10.00 uM): −2.475

SMILES: CN(C)C(=O)Nc1cccc(-c2ccc(N(C)C)cc2)c1 [Atglistatin]
- Dose.FC.LYZ.S ([1]; dose 0.08 uM): 0.028 log2 fold change
- Dose.FC.LYZ.S ([1]; dose 0.40 uM): −0.035 log2 fold change
- Dose.FC.LYZ.S ([1]; dose 2.00 uM): 0.026 log2 fold change
- Dose.FC.LYZ.S ([1]; dose 10.00 uM): 0.012 log2 fold change
- Dose.FC.CTG (ENR+CD organoids; dose 0.08 uM): 0.057 log2 fold change
- Z.CTG (standard z score) (ENR+CD organoids; dose 0.08 uM): 0.137
- Dose.FC.CTG (ENR+CD organoids; dose 0.40 uM): 0.004 log2 fold change
- Z.CTG (standard z score) (ENR+CD organoids; dose 0.40 uM): 0.009
- Dose.FC.CTG (ENR+CD organoids; dose 2.00 uM): −0.045 log2 fold change
- Z.CTG (standard z score) (ENR+CD organoids; dose 2.00 uM): −0.108
- Dose.FC.CTG (ENR+CD organoids; dose 10.00 uM): −0.431 log2 fold change
- Z.CTG (standard z score) (ENR+CD organoids; dose 10.00 uM): −1.031
- Dose.FC.LYZ.NS ([2]; dose 0.08 uM): 0.069 log2 fold change
- Z.LYZ.NS (standard z score) ([2]; dose 0.08 uM): 0.604
- Dose.FC.LYZ.NS ([2]; dose 0.40 uM): 0.135 log2 fold change
- Z.LYZ.NS (standard z score) ([2]; dose 0.40 uM): 1.176
- Dose.FC.LYZ.NS ([2]; dose 2.00 uM): 0.070 log2 fold change
- Z.LYZ.NS (standard z score) ([2]; dose 2.00 uM): 0.613
- Dose.FC.LYZ.NS ([2]; dose 10.00 uM): −0.016 log2 fold change
- Z.LYZ.NS (standard z score) ([2]; dose 10.00 uM): −0.142

SMILES: CCCCNc1ncc(-c2ccc(CN3CCOCC3)cn2)c(NC2CCC(O)CC2)n1 (stereo not drawn) [UNC2250]
- Dose.FC.LYZ.S ([1]; dose 0.08 uM): 0.142 log2 fold change
- Dose.FC.LYZ.S ([1]; dose 0.40 uM): 0.113 log2 fold change
- Dose.FC.LYZ.S ([1]; dose 2.00 uM): 0.134 log2 fold change
- Dose.FC.LYZ.S ([1]; dose 10.00 uM): −0.205 log2 fold change
- Dose.FC.CTG (ENR+CD organoids; dose 0.08 uM): 0.265 log2 fold change
- Z.CTG (standard z score) (ENR+CD organoids; dose 0.08 uM): 0.633
- Dose.FC.CTG (ENR+CD organoids; dose 0.40 uM): 0.279 log2 fold change
- Z.CTG (standard z score) (ENR+CD organoids; dose 0.40 uM): 0.667
- Dose.FC.CTG (ENR+CD organoids; dose 2.00 uM): 0.105 log2 fold change
- Z.CTG (standard z score) (ENR+CD organoids; dose 2.00 uM): 0.250
- Dose.FC.CTG (ENR+CD organoids; dose 10.00 uM): −0.064 log2 fold change
- Z.CTG (standard z score) (ENR+CD organoids; dose 10.00 uM): −0.153
- Dose.FC.LYZ.NS ([2]; dose 0.08 uM): 0.115 log2 fold change
- Z.LYZ.NS (standard z score) ([2]; dose 0.08 uM): 1.005
- Dose.FC.LYZ.NS ([2]; dose 0.40 uM): 0.067 log2 fold change
- Z.LYZ.NS (standard z score) ([2]; dose 0.40 uM): 0.587
- Dose.FC.LYZ.NS ([2]; dose 2.00 uM): 0.085 log2 fold change
- Z.LYZ.NS (standard z score) ([2]; dose 2.00 uM): 0.744
- Dose.FC.LYZ.NS ([2]; dose 10.00 uM): −0.153 log2 fold change
- Z.LYZ.NS (standard z score) ([2]; dose 10.00 uM): −1.336
